Experiments:
Type in all cases: in vivo, C57BL/6J mice
[1] = system: NAFLD-induced mice; experiment: NAFLD activity score (NAS) in mouse model of NAFLD induced by STZ administration and high-fat diet (Example 3); conditions: 10 mg/kg; for Steatosis Score 0 (number of mice): score 0 = <5%; for Hepatocyte Ballooning Score 0 (number of mice): score 0 = None; for Steatosis Score 1 (number of mice): score 1 = 5% to 33%; for Lobular Inflammation Score 1 (number of mice): score 1 = <2 Foci/200×; for Hepatocyte Ballooning Score 1 (number of mice): score 1 = Some balloon cells; for Lobular Inflammation Score 2 (number of mice): score 2 = 2 to 4 Foci/200×; for Lobular Inflammation Score 3 (number of mice): score 3 = >4 Foci/200×
Method: Two-day-old C57BL/6J mice were administered with streptozotocin (STZ, 200 μg). Since the time the mice were 5 weeks old, they were supplied with a high-fat diet (60% fat) so as to induce NAFLD. The mouse model is an experimental animal model that is known to be capable of inducing diseases ranging from diabetes, fatty liver, steatohepatitis, liver fibrosis, to liver cancer within a short period of time of 20 weeks of age. Specifically, since the time the mice were 6 weeks old, they were orally administered with vehicle (0.5% hydroxypropyl methylcellulose+0.1% Tween 80) or Compound 1, which were prepared at various concentrations, at each concentration of 1 mg/kg, 3 mg/kg, and 10 mg/kg for 4 weeks, and the livers were removed by autopsy on the final day of the test. Parts of the removed livers were fixed in a 10% formalin solution for histopathology and tissue slides were prepared therefrom and subjected to H&E staining, whereas other parts of the removed livers were used for qRT-PCR analysis. The steatosis scores and relative mRNA expression levels were calculated in the same manner as in Example 1, and the results are shown in FIGS. 3 and 4, respectively. The calculated results were expressed in mean and standard deviation, and the significance of statistical differences between the groups was confirmed using Student's t-test (*; p<0.05).
As in Example 2, vehicle or Compound 1 at a dose of 10 mg/kg was administered to the animal model in which NAFLD was induced by STZ administration and a high-fat diet. […] Additionally, two comparative groups were prepared by administering each of obeticholic acid (OCA, product name: Ocaliva) and compound A (having the same mechanism of action with Compound 1) at a dose of 10 mg/kg each, instead of vehicle or Compound 1. NAS values were respectively calculated for Normal group, the vehicle group, Compound 1 (10 mg/kg) group, and the two comparative groups (OCA-administered and compound A-administered groups), as shown in Table 2. NAS represents the sum of the scores for respective symptoms, i.e., steatosis, lobular inflammation, and hepatocyte ballooning, and the scoring for each symptom was based on the criteria described in Table 1 below. Each group consisted of 8 mice, and the NAS value is defined as the sum of the mean scores from each symptom. As NAS value is higher, NAFLD is more severe. For example, when NAS value is 3 to 4 points, the mouse can be suspected to have non-alcoholic steatohepatitis (NASH), whereas when NAS value is 5 points or higher, the mouse can be determined to have NASH.

[2] = system: NAFLD-induced mice; experiment: Steatosis score (H&E histology) in mouse model of NAFLD induced by high-fat high-cholesterol diet and fructose drinking water (Example 1); conditions: high-fat high-cholesterol diet containing 0.016% of compound for 12 weeks; vs Control group; FIG. 1
Source text: (§1) Eight-week-old C57BL/6J mice were supplied with a high-fat high-cholesterol diet (60% fat and 0.5% cholesterol) and drinking water containing 4.2% fructose for 16 weeks so as to induce non-alcoholic fatty liver disease (NAFLD).
(§2) After the supply of a high-fat high-cholesterol diet for 4 weeks, the diet was replaced with another high-fat high-cholesterol diet prepared to contain Compound 1 at a concentration of 0.016% and supplied for an additional 12 weeks, and the livers were removed by autopsy on the final day of the test. Parts of the removed livers were fixed in a 10% formalin solution for histopathology and tissue slides were prepared therefrom and subjected to H&E staining, whereas other parts of the removed livers were used for quantitative real-time PCR (qRT-PCR) analysis.
The normal mice (not induced with NAFLD, denoted by “Normal” in drawings) and the mice induced with NAFLD using a high-fat high-cholesterol diet and fructose-containing drinking water (denoted by “Control” in drawings) were used as the control group. […]

[3] = system: NAFLD-induced mice; experiment: Steatosis score in mouse model of NAFLD induced by STZ administration and high-fat diet (Example 2); conditions: oral, FIG. 3
Method: The normal mice (not induced with NAFLD, denoted by “Normal” in drawings) and the mice induced with NAFLD using a high-fat high-cholesterol diet and fructose-containing drinking water (denoted by “Control” in drawings) were used as the control group. Specifically, histological scoring was performed in the same manner as in the clinical pathology scoring as follows: score 0 when the area occupied by fat in the liver tissue is less than 5%, score 1 when the area occupied by fat in the liver tissue is 5% to 33%, score 2 when the area occupied by fat in the liver tissue is 34% to 66%, and score 3 when the area occupied by fat in the liver tissue exceeds 66%.
(§3) Two-day-old C57BL/6J mice were administered with streptozotocin (STZ, 200 μg). Since the time the mice were 5 weeks old, they were supplied with a high-fat diet (60% fat) so as to induce NAFLD. […] The steatosis scores and relative mRNA expression levels were calculated in the same manner as in Example 1, and the results are shown in FIGS. 3 and 4, respectively. The calculated results were expressed in mean and standard deviation, and the significance of statistical differences between the groups was confirmed using Student's t-test (*; p<0.05).

[4] = system: mRNA expression levels of Srebp1, TIMP1 and Col1a1 in liver tissues; experiment: Liver mRNA expression by qRT-PCR in mouse model of NAFLD induced by high-fat high-cholesterol diet (Example 1); conditions: 0.016% in diet, 12 weeks; vs Control group; relative to Normal group; FIG. 2
Source text: as §1, §2
(§4) Furthermore, the relative expression level of mRNA in Normal group was calculated by qRT-PCR. Specifically, the mRNA expression levels of Srebp1 (i.e., a gene marker associated with lipid synthesis), and TIMP1 and Col1a1 (i.e., gene markers associated with fibrosis), etc. were measured through the SYBR-green RT-PCR analysis of the removed liver tissues described above, and the relative expression levels were calculated based on those of Normal group and are shown in FIG. 2. The calculated data were expressed in mean and standard deviation, and the significance of statistical differences between groups was confirmed using Student's t-test (*; p<0.05).

[5] = system: NAFLD-induced mice; experiment: Degree of liver fibrosis by Sirius Red staining in STZ and high-fat diet NAFLD mouse model (Example 3); conditions: 10 mg/kg; fibrosis area increased by NASH induction; FIG. 6
Method: as §3, with “NAFLD. The mouse model is an experimental animal model that is known to be capable of inducing diseases ranging from diabetes, fatty liver, steatohepatitis, liver fibrosis, to liver cancer within a short period of time of 20 weeks of age.” for “NAFLD.”
As in Example 2, vehicle or Compound 1 at a dose of 10 mg/kg was administered to the animal model in which NAFLD was induced by STZ administration and a high-fat diet. […] NAS values were respectively calculated for Normal group, the vehicle group, Compound 1 (10 mg/kg) group, and the two comparative groups (OCA-administered and compound A-administered groups), as shown in Table 2. […] For example, when NAS value is 3 to 4 points, the mouse can be suspected to have non-alcoholic steatohepatitis (NASH), whereas when NAS value is 5 points or higher, the mouse can be determined to have NASH. […]

[6] = system: expression levels of the gene (mRNA) associated with lipid synthesis, inflammation, and fibrosis; experiment: Liver mRNA expression by qRT-PCR in mouse model of NAFLD induced by STZ administration and high-fat diet (Example 2); conditions: oral, 1 mg/kg, 3 mg/kg, and mg/kg for 4 weeks; vs Control group; FIG. 4
Method: as §4, §3

[7] = Blood lipid levels in STZ and high-fat diet NAFLD mouse model (Example 4); conditions: 1 mg/kg, 3 mg/kg, and 10 mg/kg; compared to vehicle administered group; FIG. 7
Method: as §3, with “NAFLD. The mouse model is an experimental animal model that is known to be capable of inducing diseases ranging from diabetes, fatty liver, steatohepatitis, liver fibrosis, to liver cancer within a short period of time of 20 weeks of age.” for “NAFLD.”
Blood specimens were secured before autopsy by collecting blood samples from an experimental animal model prepared as in Example 2, in which NAFLD was induced by administering STZ and supplying a high-fat diet, and to which Compound 1 was administered at doses of 1 mg/kg, 3 mg/kg, and 10 mg/kg. The obtained blood samples were centrifuged to separate blood plasma, and the remaining samples were analyzed for blood lipid levels (e.g., levels of total cholesterol, high-density lipoprotein (HDL), and low-density lipoprotein (LDL)) using a biochemical analyzer (Hitachi 7100), and the results are shown in FIG. 7. […]

With `CC[C@H]1[C@@H](O)[C@@H]2[C@H](CC[C@]3(C)[C@@H]([C@H](C)CCC(=O)O)CC[C@@H]23)[C@@]2(C)CC[C@@H](O)C[C@@H]12` [OCA, obeticholic acid, reference compound] the “Steatosis Score 0 (number of mice)” value ([1]; n=8 mice per group) was 2, the “Hepatocyte Ballooning Score 0 (number of mice)” value ([1]; n=8 mice per group) was 4 and the “Steatosis Score 1 (number of mice)” value ([1]; n=8 mice per group) was 6. The “Lobular Inflammation Score 1 (number of mice)” value ([1]; n=8 mice per group) was 1, the “Hepatocyte Ballooning Score 1 (number of mice)” value ([1]; n=8 mice per group) was 4 and the “Lobular Inflammation Score 2 (number of mice)” value ([1]; n=8 mice per group) was 5. The “Lobular Inflammation Score 3 (number of mice)” value ([1]; n=8 mice per group) was 2.

With `CCCCC1(CCCC)CN(c2ccc(F)cc2)c2cc(SC)c(CNCC(=O)O)cc2S(=O)(=O)C1` [Compound 1, 2-(((3,3-dibutyl-5-(4-fluorophenyl)-7-methylthio-1,1-dioxido-2,3,4,5-tetrahydrobenzo[b][1,4]thiazepin-8-yl)methyl)amino)acetic acid] the steatosis score [2] was “significant decrease in steatosis score close to that of Normal group”, the steatosis score ([3]; 1 mg/kg, 3 mg/kg and 10 mg/kg for 4 weeks, vs vehicle Control group) was “lower steatosis scores” and the steatosis score ([3]; dose of 1 mg/kg for 4 weeks, vs vehicle) was “reduced steatosis score”. For the same compound, the “NAS (NAFLD activity score)” value ([1]; compared to comparative groups OCA and Compound A at identical dose, FIG. 5) was “significantly reduced NAS values”, the “Steatosis Score 0 (number of mice)” value ([1]; n=8 mice per group) was 4 and the “Hepatocyte Ballooning Score 0 (number of mice)” value ([1]; n=8 mice per group) was 6. The “Steatosis Score 1 (number of mice)” value ([1]; n=8 mice per group) was 4, the “Lobular Inflammation Score 1 (number of mice)” value ([1]; n=8 mice per group) was 2 and the “Hepatocyte Ballooning Score 1 (number of mice)” value ([1]; n=8 mice per group) was 1. For the same compound, the “Lobular Inflammation Score 2 (number of mice)” value ([1]; n=8 mice per group) was 5, the “Hepatocyte Ballooning Score 2 (number of mice)” value ([1]; n=8 mice per group, score 2 = Many cells/Prominent ballooning) was 1 and the “Lobular Inflammation Score 3 (number of mice)” value ([1]; n=8 mice per group) was 1. For the same compound, the “mRNA level of Col1a1 (liver)” value [4] was “remarkable decrease with statistical significance”, the “mRNA level of Srebp1 (liver)” value [4] was “remarkable decrease with statistical significance” and the “mRNA level of TIMP1 (liver)” value [4] was “remarkable decrease with statistical significance”. The “fibrosis area (Sirius Red positive area)” value [5] was “significant decrease in the fibrosis area”, the “expression levels of the gene (mRNA) associated with lipid synthesis, inflammation, and fibrosis” value [6] was “significant decreases” and the “blood level of HDL” value [7] was “higher level of HDL”. The “blood level of LDL” value [7] was “lower level of LDL”.
